# Test results: patent US20050282755A1, “Compositions having antimicrobial activity and uses thereof” (priority 2004, published 2005)
# Non-standard residues stand in square brackets, D forms with d. Residues, ends and D or L forms follow the SMILES beside them. *: point of attachment. 1Nal = N[C@@H](Cc1cccc2ccccc12)C(=O)O; Stearoyl = CCCCCCCCCCCCCCCCCC(=O)*; Palmitoyl = CCCCCCCCCCCCCCCC(=O)*; Lauroyl = CCCCCCCCCCCC(=O)*; Octanoyl = CCCCCCCC(=O)*; Hexanoyl = CCCCCC(=O)*
# Columns and labels:
# Format in all cases: cell-based
# [1] = tested on: Escherichia coli ATCC 25922; assay: MIC, NCCLS M7-A6 broth microdilution (Table 9, no superscript); details: ATCC 25922
# Summary of the method: (§1)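 Broth microdilution in cation-adjusted Mueller Hinton broth, log-phase inoculum giving 5×10^5 to 1×10^6 CFU/milliliter per well. Overnight incubation at 37° C. MIC taken as lowest peptide concentration with no visible turbidity versus a no-peptide control.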
# [2] = tested on: Staphylococcus epidermidis ATCC 12228; assay: as above; details: ATCC 12228
# Summary of the method: as §1
# Salmonella dublin (Lane) = assay: as above
# Summary of the method: as §1
# [3] = tested on: Pseudomonas aeruginosa ATCC 27853; assay: as above; details: ATCC 27853
# Summary of the method: as §1
# [4] = tested on: Staphylococcus aureus ATCC 29213; assay: MIC, NCCLS M7-A6 broth microdilution, cation-adjusted Mueller Hinton broth (Table 9, no superscript); details: ATCC 29213
# Summary of the method: as §1
Structure (SMILES),MIC E. coli [1],MIC S. epidermidis [2],MIC S. dublin (Salmonella dublin (Lane)),MIC P. aeruginosa [3],MIC S. aureus [4]
"CCCCCCCCCCCC(=O)N[C@@H](CCCNC(=N)N)C(=O)N[C@@H](CO)C(=O)N[C@@H](CCCNC(=N)N)C(=O)N[C@@H](Cc1c[nH]c2ccccc12)C(=O)N[C@@H](CCCNC(=N)N)C(=O)N[C@@H](CC(=O)O)C(=O)N[C@@H](Cc1cccc2ccccc12)C(=O)N[C@@H](C)C(=O)N[C@@H](CCCNC(=N)N)C(=O)N[C@@H](CC(N)=O)C(=O)N[C@@H](Cc1cccc2ccccc12)C(=O)N[C@@H](CCSC)C(=O)N[C@@H](CCCNC(=N)N)C(N)=O [Peptide 156, Lauryl-RSRWRDZARNZMR-NH2 Z = 1-naphthylalanine] (Lauroyl-RSRWRD[1Nal]ARN[1Nal]MR-NH2)",64 µg/mL,16 µg/mL,8 µg/mL,>64 µg/mL,32 µg/mL
"CCCCCC(=O)NCCCC[C@H](NC(=O)[C@H](CCCNC(=N)N)NC(=O)[C@H](CC(C)C)NC(=O)[C@H](Cc1ccccc1)NC(=O)[C@H](CC(N)=O)NC(=O)[C@H](CCCNC(=N)N)NC(=O)[C@H](C)NC(=O)[C@@H](NC(=O)[C@H](CC(=O)O)NC(=O)[C@H](CCCNC(=N)N)NC(=O)[C@H](Cc1c[nH]c2ccccc12)NC(=O)[C@H](CCCNC(=N)N)NC(=O)[C@H](CO)NC(=O)[C@@H](N)CCCNC(=N)N)C(C)C)C(N)=O [Peptide 178, H2N-RSRWRDVARNFLRK(Hexanyl)-NH2] (H-RSRWRDVARNFLRK(Hexanoyl)-NH2)",8 µg/mL,2 µg/mL,16 µg/mL,16 µg/mL,>64 µg/mL
"CCCCCCCCCCCC(=O)N[C@H](CCCNC(=N)N)C(=O)N[C@H](CO)C(=O)N[C@H](C)C(=O)N[C@H](Cc1c[nH]c2ccccc12)C(=O)N[C@H](CCCNC(=N)N)C(=O)N[C@H](CC(=O)O)C(=O)N[C@@H](C(=O)N[C@H](C)C(=O)N[C@H](CCCNC(=N)N)C(=O)N[C@H](CC(N)=O)C(=O)N[C@H](Cc1ccccc1)C(=O)N[C@H](CCSC)C(=O)N[C@H](CCCNC(=N)N)C(N)=O)C(C)C [Peptide 228, Lauryl-rsawrdvarnfmr-NH2] (Lauroyl-[dR][dS][dA][dW][dR][dD][dV][dA][dR][dN][dF][dM][dR]-NH2)",>64 µg/mL,16 µg/mL,64 µg/mL,>64 µg/mL,64 µg/mL
"CCCCCCCC(=O)NCCCC[C@H](NC(=O)[C@H](CCCNC(=N)N)NC(=O)[C@H](CCSC)NC(=O)[C@H](Cc1ccccc1)NC(=O)[C@H](CC(N)=O)NC(=O)[C@H](CCCNC(=N)N)NC(=O)[C@H](C)NC(=O)[C@@H](NC(=O)[C@H](CC(=O)O)NC(=O)[C@H](CCCNC(=N)N)NC(=O)[C@H](Cc1c[nH]c2ccccc12)NC(=O)[C@H](CCCNC(=N)N)NC(=O)[C@H](CO)NC(=O)[C@@H](N)CCCNC(=N)N)C(C)C)C(N)=O [Peptide 184, H2N-RSRWRDVARNFMRK(Octanyl)-NH2] (H-RSRWRDVARNFMRK(Octanoyl)-NH2)",16 µg/mL,2 µg/mL,16 µg/mL,>64 µg/mL,64 µg/mL
"CCCCCCCCCCCCCCCCCC(=O)N[C@@H](C(=O)N[C@H](CCCNC(=N)N)C(=O)N[C@@H](C(=O)N[C@H](CO)C(=O)N[C@H](CCCNC(=N)N)C(=O)N[C@@H](C(=O)NCC(=O)N[C@H](CCCNC(=N)N)C(=O)N[C@H](CO)C(=O)N[C@H](CCCNC(=N)N)C(=O)N[C@H](Cc1c[nH]c2ccccc12)C(=O)N[C@H](CCCNC(=N)N)C(=O)N[C@H](CC(=O)O)C(=O)N[C@H](Cc1c[nH]c2ccccc12)C(=O)N[C@H](CO)C(=O)N[C@H](CCCNC(=N)N)C(=O)N[C@H](CC(N)=O)C(=O)N[C@H](Cc1ccccc1)C(=O)N[C@H](CCSC)C(=O)N[C@H](CCCNC(=N)N)C(=O)N[C@H](C)C(=O)N[C@H](C)C(=O)N[C@@H](CCCCN)C(N)=O)[C@H](C)O)C(C)C)[C@H](C)O [Peptide 81, Stearyl-trvsrtgrsrwrdwsrnfmraaK-NH2] (Stearoyl-[dT][dR][dV][dS][dR][dT]G[dR][dS][dR][dW][dR][dD][dW][dS][dR][dN][dF][dM][dR][dA][dA]K-NH2)",64 µg/mL,64 µg/mL,32 µg/mL,>64 µg/mL,64 µg/mL
"CCCCCCCC(=O)NCCCC[C@H](NC(=O)[C@H](CCCNC(=N)N)NC(=O)[C@H](CC(C)C)NC(=O)[C@H](Cc1ccccc1)NC(=O)[C@H](CC(N)=O)NC(=O)[C@H](CCCNC(=N)N)NC(=O)[C@H](C)NC(=O)[C@@H](NC(=O)[C@H](CC(=O)O)NC(=O)[C@H](CCCNC(=N)N)NC(=O)[C@H](Cc1c[nH]c2ccccc12)NC(=O)[C@H](CCCNC(=N)N)NC(=O)[C@H](CO)NC(=O)[C@@H](N)CCCNC(=N)N)C(C)C)C(N)=O [Peptide 179, H2N-RSRWRDVARNFLRK(Octanyl)-NH2] (H-RSRWRDVARNFLRK(Octanoyl)-NH2)",32 µg/mL,8 µg/mL,64 µg/mL,64 µg/mL,32 µg/mL
"CCCCCCCCCCCC(=O)N[C@H](CCCNC(=N)N)C(=O)N[C@H](CO)C(=O)N[C@H](CCCNC(=N)N)C(=O)N[C@H](Cc1c[nH]c2ccccc12)C(=O)N[C@H](C)C(=O)N[C@H](CC(=O)O)C(=O)N[C@@H](C(=O)N[C@H](C)C(=O)N[C@H](CCCNC(=N)N)C(=O)N[C@H](CC(N)=O)C(=O)N[C@H](Cc1ccccc1)C(=O)N[C@H](CCSC)C(=O)N[C@H](CCCNC(=N)N)C(N)=O)C(C)C [Peptide 229, Lauryl-rsrwadvarnfmr-NH2] (Lauroyl-[dR][dS][dR][dW][dA][dD][dV][dA][dR][dN][dF][dM][dR]-NH2)",8 µg/mL,4 µg/mL,8 µg/mL,8 µg/mL,8 µg/mL

# More lines, now with the values ahead:
MIC E. coli [1],MIC S. epidermidis [2],MIC S. dublin (Salmonella dublin (Lane)),MIC P. aeruginosa [3],MIC S. aureus [4],Structure (SMILES)
64 µg/mL,4 µg/mL,8 µg/mL,>64 µg/mL,64 µg/mL,"CCCCCCCCCCCCCCCC(=O)N[C@H](CCCNC(=N)N)C(=O)N[C@H](CO)C(=O)N[C@H](CCCNC(=N)N)C(=O)N[C@H](Cc1c[nH]c2ccccc12)C(=O)N[C@H](CCCNC(=N)N)C(=O)N[C@H](CC(=O)O)C(=O)N[C@@H](C(=O)N[C@H](C)C(=O)N[C@H](CCCNC(=N)N)C(=O)N[C@H](CC(N)=O)C(=O)N[C@H](Cc1ccccc1)C(=O)N[C@H](CC(C)C)C(=O)N[C@H](CCCNC(=N)N)C(N)=O)C(C)C [Peptide 191, Palmitoyl-rsrwrdvarnflr-NH2] (Palmitoyl-[dR][dS][dR][dW][dR][dD][dV][dA][dR][dN][dF][dL][dR]-NH2)"
64 µg/mL,8 µg/mL,16 µg/mL,>64 µg/mL,32 µg/mL,CCCCCCCCCCCC(=O)N[C@H](C(=O)N[C@@H](CCCNC(=N)N)C(=O)N[C@H](C(=O)N[C@@H](CO)C(=O)N[C@@H](CCCNC(=N)N)C(=O)N[C@H](C(=O)NCC(=O)N[C@@H](CCCNC(=N)N)C(=O)N[C@@H](CO)C(=O)N[C@@H](CCCNC(=N)N)C(=O)N[C@@H](Cc1c[nH]c2ccccc12)C(=O)N[C@@H](CCCNC(=N)N)C(=O)N[C@@H](CC(=O)O)C(=O)N[C@@H](Cc1c[nH]c2ccccc12)C(=O)N[C@@H](CO)C(=O)N[C@@H](CCCNC(=N)N)C(=O)N[C@@H](CC(N)=O)C(=O)N[C@@H](Cc1ccccc1)C(=O)N[C@@H](CCSC)C(=O)N[C@@H](CCCNC(=N)N)C(=O)N[C@@H](CC(C)C)C(=O)N[C@@H](CC(C)C)C(N)=O)[C@@H](C)O)C(C)C)[C@@H](C)O [Peptide 68] (Lauroyl-TRVSRTGRSRWRDWSRNFMRLL-NH2)
16 µg/mL,2 µg/mL,2 µg/mL,8 µg/mL,1 µg/mL,"CCCCCCCCCCCC(=O)N[C@H](CCCNC(=N)N)C(=O)N[C@H](C)C(=O)N[C@H](CCCNC(=N)N)C(=O)N[C@H](Cc1c[nH]c2ccccc12)C(=O)N[C@H](CCCNC(=N)N)C(=O)N[C@H](C)C(=O)N[C@@H](C(=O)N[C@H](C)C(=O)N[C@H](CCCNC(=N)N)C(=O)N[C@H](C)C(=O)N[C@H](Cc1ccccc1)C(=O)N[C@H](C)C(=O)N[C@H](CCCNC(=N)N)C(N)=O)C(C)C [Peptide 217, Lauryl-rarwravarafar-NH2] (Lauroyl-[dR][dA][dR][dW][dR][dA][dV][dA][dR][dA][dF][dA][dR]-NH2)"
32 µg/mL,8 µg/mL,64 µg/mL,64 µg/mL,8 µg/mL,"CCCCCCCCCCCC(=O)N[C@@H](CCCNC(=N)N)C(=O)N[C@@H](CO)C(=O)N[C@@H](CCCNC(=N)N)C(=O)N[C@@H](Cc1cccc2ccccc12)C(=O)N[C@@H](CCCNC(=N)N)C(=O)N[C@@H](CC(=O)O)C(=O)N[C@@H](Cc1cccc2ccccc12)C(=O)N[C@@H](C)C(=O)N[C@@H](CCCNC(=N)N)C(=O)N[C@@H](CC(N)=O)C(=O)N[C@@H](Cc1ccccc1)C(=O)N[C@@H](CCSC)C(=O)N[C@@H](CCCNC(=N)N)C(N)=O [Peptide 153, Lauryl-RSRZRDZARNFMR-NH2 Z = 1-naphthylalanine] (Lauroyl-RSR[1Nal]RD[1Nal]ARNFMR-NH2)"
